In patent publication US20240360194A1, “New Peptides as Potent and Selective GIP Receptor Agonists” (Sanofi, priority 2021, published 2024):
Numbered stars: 1 amine (or outer) side, 2 acyl side, 3 side chain; on linkers, the order of the positions; unused ones are H or OH. Square brackets hold non-standard residues; d marks the D form. Side chains are listed from the residue outwards. Peptide text beside a SMILES is read from it. * marks the point of attachment. C18 diacid = O=C(O)CCCCCCCCCCCCCCCCC(=O)*; γGlu = O=C(O)[C@H](CCC(=O)[*:2])N[*:1]; AEEA = NCCOCCOCC(=O)O; Aib = CC(C)(N)C(=O)O

Columns and labels:
[1] = target: T1, human GIP receptor (Homo sapiens, UniProt P48546); assay: In vitro cellular cAMP assay for GIP receptor efficacy (human adipocytes); type: cell-based; settings: for Emax: read-out: hGIPR Emax; for EC50: read-out: hGIPR EC50
T1 construct: human adipocytes endogenously expressing the human GIP receptor; host or cells: human preadipocytes (Lonza) differentiated to adipocytes
T1 sequence (P48546 22-466): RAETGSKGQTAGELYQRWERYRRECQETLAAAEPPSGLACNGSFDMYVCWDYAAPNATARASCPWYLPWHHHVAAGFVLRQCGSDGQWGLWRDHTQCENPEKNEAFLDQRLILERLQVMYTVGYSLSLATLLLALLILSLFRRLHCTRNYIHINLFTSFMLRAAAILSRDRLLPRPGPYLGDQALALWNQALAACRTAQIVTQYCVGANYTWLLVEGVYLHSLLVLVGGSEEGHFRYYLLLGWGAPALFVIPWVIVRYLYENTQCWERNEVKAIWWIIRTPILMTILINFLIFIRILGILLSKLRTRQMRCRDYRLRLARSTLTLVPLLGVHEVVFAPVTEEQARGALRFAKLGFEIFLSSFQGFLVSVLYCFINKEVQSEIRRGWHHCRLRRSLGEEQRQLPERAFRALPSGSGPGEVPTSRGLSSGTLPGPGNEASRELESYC
How it was run: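 cAMP is read by HTRF (665/620 nm ratio, 1 h after reagents in lysis buffer) following 30 min compound exposure at room temperature. Cells are human preadipocyte-derived adipocytes, differentiated 6 days with insulin, dexamethasone, IBMX (200 μM), PPARγ agonist and L-thyroxine, seeded 5000 per well.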

[2] = Pharmacokinetic evaluation in rats; type: in vivo; settings: male, SD, rat, in vivo
Experimental: Compounds were administered in a suitable buffer system, e.g. PBS buffer solution at pH7.4 or DPBS solution at concentrations of 0.05, 0.1, 0.5 or 1 mg/ml depending on dose, species and administration volume. Male SD rats were dosed 0.25 mg/kg, 0.5 mg/kg or 1 mg/kg intravenously (i.v.) or subcutaneously (s.c.). Blood samples were collected after 0.08, 0.25, 0.5, 1, 2, 4, 8, 24, 32, and 48 h post i.v. application and 0.25, 0.5, 1, 2, 4, 8, 24, 32, and 48 h post s.c. application, respectively. Plasma samples were analysed after protein precipitation via liquid chromatography mass spectrometry (LC/MS). PK parameters and half-life were calculated using Phoenix-WinNonlin 8.1 using a non-compartmental model and linear trapezoidal interpolation calculation. Pharmacokinetic profiles were determined as described in Methods.

[3] = target: human GLP-1 receptor (hGLP-1R) (Homo sapiens, UniProt P43220); assay: In vitro cellular cAMP assay for GLP-1 receptor efficacy (HEK-293 cell line over-expressing receptor); type: cell-based; settings: HEK-293, 0.1% BSA
human GLP-1 receptor (hGLP-1R), sequence (P43220 24-463): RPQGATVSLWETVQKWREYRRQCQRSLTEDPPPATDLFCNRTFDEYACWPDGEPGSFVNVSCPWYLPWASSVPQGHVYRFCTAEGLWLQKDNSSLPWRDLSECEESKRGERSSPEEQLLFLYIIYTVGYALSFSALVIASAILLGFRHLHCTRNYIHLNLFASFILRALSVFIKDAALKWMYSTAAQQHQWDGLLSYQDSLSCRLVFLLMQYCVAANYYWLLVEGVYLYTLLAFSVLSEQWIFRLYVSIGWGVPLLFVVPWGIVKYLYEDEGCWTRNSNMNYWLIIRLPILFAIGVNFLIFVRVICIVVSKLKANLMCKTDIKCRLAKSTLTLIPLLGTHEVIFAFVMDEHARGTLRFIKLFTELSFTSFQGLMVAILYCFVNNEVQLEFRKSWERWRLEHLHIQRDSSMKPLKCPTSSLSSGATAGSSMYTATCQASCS

[4] = target: T2, human GIP receptor (hGIPR) (Homo sapiens, UniProt P48546); assay: Binding assay, displacement of [125I]GIP from HEK-293 membranes over-expressing GIPR (SPA); settings: [125I]GIP displacement
T2 sequence (P48546 22-466): T1 sequence (P48546 22-466)
How it was run: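 Membranes from HEK-293 cells over-expressing human GIPR or GLP-1R, isolated by homogenising, sonicating and ultracentrifuging at 100000×g into HEPES/EDTA/NaCl buffer with protease inhibitors, were used for binding.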

Row | Compound | Emax [1] [%] | AUC(0-t) ([2]; iv, 0.25 mg/kg) [µg·h/mL] | Cmax ([2]; iv, 0.25 mg/kg) [ng/mL] | clearance ([2]; iv, 0.25 mg/kg) [mL/h/kg] | half-life ([2]; iv, 0.25 mg/kg) [h] | AUC(0-t) ([2]; sc, 0.5 mg/kg) [µg·h/mL] | Cmax ([2]; sc, 0.5 mg/kg) [ng/mL] | bioavailability ([2]; sc, 0.5 mg/kg) [%] | half-life ([2]; sc, 0.5 mg/kg) [h] | EC50 [3] [nM] | EC50 [1] [nM] | IC50 [4] [nM]
1 | CC[C@H](C)[C@H](NC(=O)[C@H](CCC(=O)O)NC(=O)[C@H](CCC(=O)O)NC(=O)[C@H](CCCCNC(=O)COCCOCCNC(=O)COCCOCCNC(=O)CC[C@H](NC(=O)CCCCCCCCCCCCCCCCC(=O)O)C(=O)O)NC(=O)C(C)(C)NC(=O)[C@@H](NC(=O)[C@H](CO)NC(=O)[C@H](CC(C)C)NC(=O)[C@H](CC(=O)O)NC(=O)[C@H](CO)NC(=O)[C@@H](NC(=O)[C@H](Cc1ccccc1)NC(=O)[C@@H](NC(=O)CNC(=O)[C@H](CCC(=O)O)NC(=O)C(C)(C)NC(=O)[C@@H](N)Cc1ccc(O)cc1)[C@@H](C)O)[C@@H](C)CC)[C@@H](C)CC)C(=O)N[C@@H](Cc1c[nH]cn1)C(=O)N[C@@H](CCC(N)=O)C(=O)NC(C)(C)C(=O)N[C@@H](CCC(=O)O)C(=O)N[C@@H](Cc1ccccc1)C(=O)N[C@H](C(=O)N[C@@H](CCC(=O)O)C(=O)N[C@@H](Cc1c[nH]c2ccccc12)C(=O)N[C@@H](CC(C)C)C(=O)N[C@@H](CC(C)C)C(=O)N[C@@H](C)C(=O)N[C@@H](CCC(N)=O)C(=O)NCC(=O)N1CCC[C@H]1C(=O)N[C@@H](CO)C(=O)N[C@@H](CO)C(=O)NCC(=O)N[C@@H](C)C(=O)N1CCC[C@H]1C(=O)N1CCC[C@H]1C(=O)N1CCC[C@H]1C(=O)N[C@@H](CO)C(N)=O)[C@@H](C)CC [SEQ ID NO: 19, H2N-Y-Aib-E-G-T-F-I-S-D-L-S-I-Aib-K[{AEEA}2-gGlu-C18OH]-E-E-I-H-Q-Aib-E-F-I-E-W-L-L-A-Q-G-P-S-S-G-A-P-P-P-S-NH2] (H-Y[Aib]EGTFISDLSI[Aib]K([AEEA-AEEA-γGlu-C18 diacid])EEIHQ[Aib]EFIEWLLAQGPSSGAPPPS-NH2) | 94 | 194 | 12800 | 1.09 | 19.6 | 189 | 5590 | 54 | 20.1 | > 10 |  | 
2 | CC[C@H](C)[C@H](NC(=O)[C@H](Cc1ccccc1)NC(=O)[C@H](CCC(=O)O)NC(=O)[C@H](CCC(=O)O)NC(=O)[C@H](CCC(N)=O)NC(=O)[C@H](Cc1c[nH]cn1)NC(=O)[C@@H](NC(=O)[C@H](CCCNC(=N)N)NC(=O)[C@H](CC(=O)O)NC(=O)[C@H](CCCCNC(=O)COCCOCCNC(=O)COCCOCCNC(=O)CC[C@H](NC(=O)CCCCCCCCCCCCCCCCC(=O)O)C(=O)O)NC(=O)C(C)(C)NC(=O)[C@@H](NC(=O)[C@H](CO)NC(=O)[C@H](CC(C)C)NC(=O)[C@H](CC(=O)O)NC(=O)[C@H](CO)NC(=O)[C@@H](NC(=O)[C@H](Cc1ccccc1)NC(=O)[C@@H](NC(=O)CNC(=O)[C@H](CCC(=O)O)NC(=O)C(C)(C)NC(=O)[C@@H](N)Cc1ccc(O)cc1)[C@@H](C)O)[C@@H](C)CC)[C@@H](C)CC)[C@@H](C)CC)C(=O)N[C@@H](CCC(=O)O)C(=O)N[C@@H](Cc1c[nH]c2ccccc12)C(=O)N[C@@H](CC(C)C)C(=O)N[C@@H](CC(C)C)C(=O)N[C@@H](C)C(=O)N[C@@H](CCC(N)=O)C(=O)N[C@@H](CCCNC(=N)N)C(=O)NCC(N)=O [SEQ ID NO: 4, H2N-Y-Aib-E-G-T-F-I-S-D-L-S-I-Aib-K[{AEEA}2-gGlu-C18OH]-D-R-I-H-Q-E-E-F-I-E-W-L-L-A-Q-R-G-NH2] | 134 |  |  |  |  |  |  |  |  | > 1 | 2.4 | 1.5
3 | CC[C@H](C)[C@H](NC(=O)[C@H](CCCNC(=N)N)NC(=O)[C@H](CC(=O)O)NC(=O)[C@H](CC(C)C)NC(=O)C(C)(C)NC(=O)[C@@H](NC(=O)[C@H](CO)NC(=O)[C@H](CC(C)C)NC(=O)[C@H](CC(=O)O)NC(=O)[C@H](CO)NC(=O)[C@@H](NC(=O)[C@H](Cc1ccccc1)NC(=O)[C@@H](NC(=O)CNC(=O)[C@H](CCC(=O)O)NC(=O)C(C)(C)NC(=O)[C@@H](N)Cc1ccc(O)cc1)[C@@H](C)O)[C@@H](C)CC)[C@@H](C)CC)C(=O)N[C@@H](CCCCNC(=O)COCCOCCNC(=O)COCCOCCNC(=O)CC[C@H](NC(=O)CCCCCCCCCCCCCCCCC(=O)O)C(=O)O)C(=O)N[C@@H](CCC(N)=O)C(=O)NC(C)(C)C(=O)N[C@@H](CCC(=O)O)C(=O)N[C@@H](Cc1ccccc1)C(=O)N[C@H](C(=O)N[C@@H](CCC(=O)O)C(=O)N[C@@H](Cc1c[nH]c2ccccc12)C(=O)N[C@@H](CC(C)C)C(=O)N[C@@H](CC(C)C)C(=O)N[C@@H](C)C(=O)N[C@@H](CCC(N)=O)C(=O)NCC(=O)N1CCC[C@H]1C(=O)N[C@@H](CO)C(=O)N[C@@H](CO)C(=O)NCC(=O)N[C@@H](C)C(=O)N1CCC[C@H]1C(=O)N1CCC[C@H]1C(=O)N1CCC[C@H]1C(=O)N[C@@H](CO)C(N)=O)[C@@H](C)CC [SEQ ID NO: 37, H2N-Y-Aib-E-G-T-F-I-S-D-L-S-I-Aib-L-D-R-I-K[{AEEA}2-gGlu-C18OH]-Q-Aib-E-F-I-E-W-L-L-A-Q-G-P-S-S-G-A-P-P-P-S-NH2] (H-Y[Aib]EGTFISDLSI[Aib]LDRIK([AEEA-AEEA-γGlu-C18 diacid])Q[Aib]EFIEWLLAQGPSSGAPPPS-NH2) | 113 |  |  |  |  |  |  |  |  | > 10 | 0.5 | 0.1
4 | CC[C@H](C)[C@H](NC(=O)[C@H](Cc1ccccc1)NC(=O)[C@H](CCC(=O)O)NC(=O)[C@H](CCC(=O)O)NC(=O)[C@H](CCC(N)=O)NC(=O)[C@H](Cc1c[nH]cn1)NC(=O)[C@@H](NC(=O)[C@H](CCCNC(=N)N)NC(=O)[C@H](CC(=O)O)NC(=O)[C@H](CCCCNC(=O)COCCOCCNC(=O)COCCOCCNC(=O)CC[C@H](NC(=O)CCCCCCCCCCCCCCCCC(=O)O)C(=O)O)NC(=O)C(C)(C)NC(=O)[C@@H](NC(=O)[C@H](CO)NC(=O)[C@H](CC(C)C)NC(=O)[C@H](CC(=O)O)NC(=O)[C@H](CO)NC(=O)[C@@H](NC(=O)[C@@](C)(CC)NC(=O)[C@@H](NC(=O)CNC(=O)[C@H](CCC(=O)O)NC(=O)C(C)(C)NC(=O)[C@@H](N)Cc1ccc(O)cc1)[C@@H](C)O)[C@@H](C)CC)[C@@H](C)CC)[C@@H](C)CC)C(=O)N[C@@H](CCC(=O)O)C(=O)N[C@@H](Cc1c[nH]c2ccccc12)C(=O)N[C@@H](CC(C)C)C(=O)N[C@@H](CC(C)C)C(=O)N[C@@H](C)C(=O)N[C@@H](CCC(N)=O)C(=O)N[C@@H](CCCNC(=N)N)C(=O)NCC(N)=O [SEQ ID NO: 15, H2N-Y-Aib-E-G-T-Iva-I-S-D-L-S-I-Aib-K[{AEEA}2-gGlu-C18OH]-D-R-I-H-Q-E-E-F-I-E-W-L-L-A-Q-R-G-NH2] | 109 |  |  |  |  |  |  |  |  | > 10 | 0.8 | 0.2
5 | CC[C@H](C)[C@H](NC(=O)[C@H](CCCNC(=N)N)NC(=O)[C@H](CC(=O)O)NC(=O)[C@H](CCCCNC(=O)COCCOCCNC(=O)COCCOCCNC(=O)CC[C@H](NC(=O)CCCCCCCCCCCCCCCCC(=O)O)C(=O)O)NC(=O)C(C)(C)NC(=O)[C@@H](NC(=O)[C@H](CO)NC(=O)[C@H](CC(C)C)NC(=O)[C@H](CC(=O)O)NC(=O)[C@H](CO)NC(=O)[C@@H](NC(=O)[C@H](Cc1ccccc1)NC(=O)[C@@H](NC(=O)CNC(=O)[C@H](CCC(=O)O)NC(=O)C(C)(C)NC(=O)[C@@H](N)Cc1ccc(O)cc1)[C@@H](C)O)[C@@H](C)CC)[C@@H](C)CC)C(=O)N[C@@H](Cc1c[nH]cn1)C(=O)N[C@@H](CCC(N)=O)C(=O)NC(C)(C)C(=O)N[C@@H](CCC(=O)O)C(=O)N[C@@H](Cc1ccccc1)C(=O)N[C@H](C(=O)N[C@@H](CCC(=O)O)C(=O)N[C@@H](Cc1c[nH]c2ccccc12)C(=O)N[C@@H](CC(C)C)C(=O)N[C@@H](CC(C)C)C(=O)N[C@@H](C)C(=O)N[C@@H](CCC(N)=O)C(=O)N[C@@H](CCC(=O)O)C(=O)NCC(N)=O)[C@@H](C)CC [SEQ ID NO: 12, H2N-Y-Aib-E-G-T-F-I-S-D-L-S-I-Aib-K[{AEEA}2-gGlu-C18OH]-D-R-I-H-Q-Aib-E-F-I-E-W-L-L-A-Q-E-G-NH2] | 112 |  |  |  |  |  |  |  |  | > 10 | 0.5 | 0.5
